From patent US7973024B2, “24-sulfoximine vitamin D3 compounds” (Cyctochroma Inc., priority 2002, dated 2011)

What was measured:
Format in all cases: cell-based
[1] = test system: normal human epidermal keratinocytes (NHEK); assay: Human epidermal keratinocyte proliferation assay; details: together with calcitriol, three days, [3H]-thymidine 18 h
Procedure: 1. HEK Cell Media • Supplemented KGM media with additional reagents provided in the bullet kit as per supplier's instructions. • Added calcium chloride to final concentration of 0.3 mM.
2. Calcitriol Dilutions • Stock: Calcitriol (1 mM)
3. Substrate Dilutions • Stock: substrate (0.1 mM)
1. Cell Culture • Thawed one vial of HEK cells containing at least 500 K, and divided into 5 25 cm^2 flasks with 5 ml HEK cell media. 24 h later, removed media and replenished with 5 ml fresh media. Changed media again 48 h later.
2. Preparation of Cell Suspension • On the day of the assay, washed the monolayer of HEK cells once with 1×PBS buffer (provided in reagent pack) and then trypsinized for 5 min at 37° C. Added trypsin neutralizing solution (provided in reagent pack). Collected cells into tube, centrifuged cells (500×g, 5 min) and resuspended in HEK cell media. Counted cells and adjusted density to 150,000 cells/ml. Diluted cells further 1:30 with HEK cell media.
2. Cell Plating • Added 150 μl of cell suspension to appropriately labelled wells of a 96-well plate. Incubated plate for 48 h at 37° C. in a humidified atmosphere containing 5% CO2 for adherence of cells to wells.
3. […]
4. Cell Harvesting and Counting • Added 0.2 μCi/well of [^3H]-thymidine in 20 μl of HEK cell media to each well. Incubated plates for 18 h at 37° C. in a humidified atmosphere containing 5% CO2. Aspirated media and washed with 1×PBS. Trypsinize-cells for 30 min at 37° C. in a humidified atmosphere containing 5% CO2. Harvested cells onto filter plates using Tomtec cell harvester as per manufacturer's instructions. Added 25 μl scintillation fluid per well. Measured radioactivity using a scintillation counter. All values were normalized for background.

CYP24 [2] = molecular target: T1, CYP24 (Homo sapiens, UniProt Q07973); assay: CYP24 enzyme assay (stable cell line V79-CYP24 cells); details: [3H-1β]-1α,25(OH)2D3 20 nM, 2 hours
T1 construct: expressed in transfected cells
T1 sequence (Q07973 36-514): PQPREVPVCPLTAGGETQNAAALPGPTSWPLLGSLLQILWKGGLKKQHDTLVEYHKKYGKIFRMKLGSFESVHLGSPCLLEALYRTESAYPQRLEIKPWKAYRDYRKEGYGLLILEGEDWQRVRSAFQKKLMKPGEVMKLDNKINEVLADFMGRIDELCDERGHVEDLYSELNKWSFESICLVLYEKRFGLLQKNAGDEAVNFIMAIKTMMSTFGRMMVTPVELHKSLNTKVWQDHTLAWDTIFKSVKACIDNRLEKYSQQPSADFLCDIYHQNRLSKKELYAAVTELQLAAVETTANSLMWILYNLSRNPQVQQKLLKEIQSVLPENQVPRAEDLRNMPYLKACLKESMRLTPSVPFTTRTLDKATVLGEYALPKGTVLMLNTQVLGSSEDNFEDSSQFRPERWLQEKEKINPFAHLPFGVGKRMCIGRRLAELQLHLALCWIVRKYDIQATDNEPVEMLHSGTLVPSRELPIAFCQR
Procedure: 1. Preparation of Cell Suspension • On the day of the assay, washed the monolayer of V79-CYP24 cells once with 1×PBS buffer and then trypsinize for 5 min at room temperature (approx. 22° C.). Added 1×PBS. Collected cells into tube, centrifuged cells (500×g, 5 min) and resuspended in DMEM+1% BSA media.
2. Cell Plating • Added 150 μl of cell suspension to appropriately labelled wells of a 48-well plate. Incubated plate for 30 minutes at 37° C. in a humidified atmosphere containing 5% CO2 for adherence of cells to wells.
3. Compound Addition • Added 25 μl of inhibitor (10^−6 to 10^−9 M) and then after 10 min added 25 μl of substrate [^3H-1β]-1α,25(OH)2D3 (20 nM) for 2 hours at 37° C. in a humidified atmosphere containing 5% CO2. Both inhibitor and substrate were prepared in DMEM with 1% BSA media in the absence and presence of 100 μM DPPD.
4. Lipid Extraction and Counting • Added 500 μL of methanol to stop the reaction. Transferred to tube. Added 250 μl of dichloromethane and vortexed. Added 250 μl of dichloromethane and 250 μl of saturated KCL and vortexed. Centrifuged at 4000 rpm for 5 min. Triplicate 100 μl aliquots of aqueous fraction were mixed with 600 μl of scintillation fluid and the radioactivity was measured using a scintillation counter. All values were normalized for background. (iii) Results.

MCF-7 cells = assay: [3H]-thymidine proliferation assay with MCF-7 cells; details: together with calcitriol, three days, [3H]-thymidine 6 h
Procedure: 1. Preparation of Cell Suspension • When MCF-7 cells were 70-80% confluent, aspirated growth media. Washed the cells with 1×PBS. Trypsinized with trypsin-EDTA from the plate, collected cells from the tissue culture flask, centrifuged (500×g, 5 min) and resuspended in growth media.
2. Cell Plating. • Counted the cells and adjusted the cell density to 25,000/ml. Added 200 μl per well in a 96 well plate. Incubated plate for 24 h at 37° C. in a humidified atmosphere plus 5% CO2. Aspirated used media and replaced with 150 μl per well with proliferation media.
3. Substrate Addition. • Added 25 μl of 1α,25(OH)2D3 (final concentration 10^−6 M, 10^−7 M, 10^−8 M, 10^−9 M, 10^−10 M, 10^−11 M) into each designated well. Added 25 μl of substrate (final concentration 10^−7 M, 5×10^−8 M, 10^−8 M or 10^−9 M) into each designated well. Incubated plates for 3 days at 37° C. in a humidified atmosphere plus 5% CO2.
4. ^3H-Thymidine incorporation. • Added ^3H-thymidine at 0.02 μCi per well and incubated at 37° C. in a humidified atmosphere plus 5% CO2 for 6 h.
5. Plate Harvesting. • Aspirated all media and washed cells with 1×PBS. Trypsinized cells for 30 min at 37° C. in a humidified atmosphere plus 5% CO2. Harvested cells onto a 96 well filter plate (Millipore) using a Tomtec Cell Harvestor, according to manufacturers instructions.
6. Scintillation Counting. • Added 25 μl of scintillation fluid per well. Counted the plate using a scintillation counter.

CYP24 [3] = molecular target: T1, CYP24; assay: In vitro test of ability to inhibit specifically CYP24 (standard protocol); details: ketoconazole as control standard

Compound | inhibition of proliferation of normal human epidermal keratinocytes (NHEK) [1] | IC50 (CYP24 [2]) | inhibition of proliferation of MCF-7 cells (MCF-7 cells) | selective inhibition of CYP24 (CYP24 [3])
C=C1/C(=C\C=C2/CCC[C@]3(C)[C@@H]([C@H](C)CCS(=N)(=O)c4ccccc4)CC[C@@H]23)C[C@@H](O)C[C@@H]1O (single isomer, unassigned) [I(a)] | act to inhibit the proliferation | 4 nM | act to inhibit the proliferation | 
C=C1/C(=C\C=C2/CCC[C@]3(C)[C@@H]([C@H](C)CCS(=O)(=NC)c4ccccc4)CC[C@@H]23)C[C@@H](O)C[C@@H]1O (single isomer, unassigned) [I(e)] | act to inhibit the proliferation | 29 nM | act to inhibit the proliferation | selectively inhibit
C=C1/C(=C\C=C2/CCC[C@]3(C)[C@@H]([C@H](C)CCS(=O)(=NC)c4ccccc4)CC[C@@H]23)C[C@@H](O)C[C@@H]1O (single isomer, unassigned) [I(g)] |  | 26 nM | act to inhibit the proliferation | selectively inhibit
C[C@H](CCS(=N)(=O)c1ccccc1)[C@H]1CC[C@H]2/C(=C/C=C3C[C@@H](O)C[C@H](O)C3)CCC[C@]12C (single isomer, unassigned) [I(i), 24-Phenyl Sulfoximine 19-Nor-Vitamin-D3] | act to inhibit the proliferation | 8.5 nM | act to inhibit the proliferation | selectively inhibit
